The target of assay [1] is T1, FimH-CRD (Escherichia coli, UniProt P08191).
T1 construct: The first 177 amino acids of the FimH protein are expressed as a fusion protein; thrombin tag (printed as 'fusion protein with thrombin') (cleaved yes); made in house; host or cells: bacteria (pET21b plasmid)
In words: Competitive binding assay by fluorescence polarization, assay 2 (compounds prepared by a robotics system, plates frozen and thawed). Also noted: species or system E. coli. The following applies: Assay 2 Kd, 5 nM Alexa 647 mannoside probe, 60 nM FimH-CRD, replicate values in one cell. As for the experimental part: (§1) The first 177 amino acids of the FimH protein are expressed as a fusion protein with thrombin in a pET21b plasmid in bacteria. This FimH protein sequence contains the carbohydrate recognition domain (CRD) and shall be termed FimH-CRD. Following bacterial expression of the protein, the FimH-CRD protein is purified to homogeneity and the thrombin tag removed by protease cleavage. A competitive binding assay by fluorescence polarization is performed using 5 nM of the Alexa 647 mannoside probe and 60 nM of the FimH-CRD. The samples are assayed in a low volume 384 well microtiter plate in a final volume of 20 μl. The final assay buffer conditions are the following, 50 mM Tris-Cl, ph 7.0, 100 mM NaCl, 1 mM EDTA, 5 mM β-mercaptoethanol, 0.05% BSA and 2.5% DMSO. Two assays are performed for FimH, termed assay 1 or assay 2. The assay conditions are the same for both assays except the following: assay 1 has compounds prepared by manual dilution in a serial dilution factor with 12-point dose response while assay 2 has compounds prepared by a robotics system also through a serial dilution factor (12 point dose response) and initially prepared in duplicate in 384 well-Corning polypropylene round bottom plates. The assay 2 plates have compound which is then frozen and must be thawed prior to use. Initially the Alexa 647 probe and the FimH-CRD are added to the assay buffer and then 0.5 μl of test compound (assay 1 or 2) between 0.4 nM to 75 μM final concentration are added (12 point titration with 3-fold serial dilution). Control wells for the Alexa 647 probe are prepared with the same conditions except for the addition of the FimH-CRD protein. Plates are then incubated for 5 hrs at room temperature in the dark and under humid conditions to prevent drying. Plates are read using the SpectraMax Paradigm multi-mode plate reader and the appropriate fluorescent polarization detection cartridge (Alexa-647).
(§2) Alexa 647 mannoside probe is prepared using the similar procedure reported for FAM mannoside (Han, Z. et. al., 2010, J. Med. Chem., 53, 4779) and is described in the scheme below.
(§3) To a blue colored stirred solution of (2S,3S,4S,5S,6R)-2-(4-aminobutoxy)-6-(hydroxymethyl)tetrahydropyran-3,4,5-triol (2.21 mg, 0.009 mmol) and the (2E)-2-[(2E,4E)-5-[3,3-dimethyl-5-sulfonato-1-(3-sulfonatopropyl)indol-1-ium-2-yl]penta-2,4-dienylidene]-3-[6-(2,5-dioxopyrrolidin-1-yl)oxy-6-oxo-hexyl]-3-methyl-1-(3-sulfonatopropyl)indoline-5-sulfonate (Potassium Ion (3)) (4.9 mg, 0.0044 mmol) in DMF (44 μL) is added Et3N (5.4 mg, 7.0 μL, 0.053 mmol) at RT. The solution is stirred at room temperature over night, concentrated, dissolved in water and purified on 12 g C-18 silica gel cartridge on Isolera system using acetonitrile in water (0 to 40%, 10 CV) and followed by lyophilization to afford Alexa 647 mannoside probe (3.3 mg, 34%) as deep blue solid.
(§4) The Kd values of the compounds are determined from dose response curves using twelve concentrations per compound in duplicate. Curves are fitted to data points using Fluorescence Polarization competitive displacement analysis, and Kds are interpolated from the resulting curves using GraphPad Prism software, version […] (GraphPad software Inc., San Diego, Calif., USA).
For orientation: In fluorescence polarisation assays a small probe gives low polarisation when free and higher when bound to something large.

Assay [2] has as its target T1, FimH-CRD. In words: Competitive binding assay by fluorescence polarization, assay 1 (compounds prepared by manual dilution). Also noted: species or system E. coli. The procedure:
as §1, §2, §3, §4

Assay [3] concerns bacterial strain LF82 binding to the glycoprotein BSA-(Mannose)3. In words: Bacterial Binding Assay (BBA). In kind it is cell-based, Escherichia coli. The following applies: read-out: Bacterial Binding Assay IC50, LF82/Luciferase strain binding to BSA-(Man)3 coated plates, luminescence. In a few lines: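 Inhibition of LF82/luciferase E. coli adhesion is read as luminescence after washing off unbound cells. Compound and bacteria (10^7 per well) are co-incubated 40-75 min at room temperature on wells coated with 0.5-2 μg/mL BSA-(Man)3, with BSA-only wells as background; IC50 values derived.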

The mark [4] stands for this setting: Assay 1 Kd, 5 nM Alexa 647 mannoside probe, 60 nM FimH-CRD, replicate values in one cell.
Where [5] appears, read: read-out: Assay 1 Kd, 5 nM Alexa 647 mannoside probe, 60 nM FimH-CRD, replicate values in one cell.

pIC50, pKd: −log10 of the molar value. Values joined by “and” are separate entries in the source; they are usually repeats but may differ in a detail not shown here. Identical values can stand only once.

T1 sequence (P08191 22-177): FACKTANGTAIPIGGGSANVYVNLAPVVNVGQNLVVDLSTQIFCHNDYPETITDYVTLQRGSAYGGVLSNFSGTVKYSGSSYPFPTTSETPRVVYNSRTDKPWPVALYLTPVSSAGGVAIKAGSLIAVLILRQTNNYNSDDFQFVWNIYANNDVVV

For the molecule `OC[C@H]1O[C@H](c2ccc([C@H]3O[C@H](CO)[C@@H](O)[C@H](O)[C@@H]3O)s2)[C@@H](O)[C@@H](O)[C@@H]1O` [Compound 46, ((2R,3S,4S,5S,6S)-2-(Hydroxymethyl)-6-[5-[(2S,3S,4S,5S,6R)-3,4,5-trihydroxy-6-(hydroxymethyl)tetrahydropyran-2-yl]-2-thienyl]tetrahydropyran-3,4,5-triol)], the pKd in assay [1] is 7.96 and 8.05 and 7.80 and 7.85.
Consider `O=[N+]([O-])c1cc(/C=C/C[C@H]2O[C@H](CO)[C@@H](O)[C@H](O)[C@@H]2O)ccc1/C=C/C[C@H]1O[C@H](CO)[C@@H](O)[C@H](O)[C@@H]1O` [Compound 32, ((2R,3S,4R,5S,6R)-2-(Hydroxymethyl)-6-[(E)-3-[3-nitro-4-[(E)-3-[(2R,3S,4R,5S,6R)-3,4,5-trihydroxy-6-(hydroxymethyl)tetrahydropyran-2-yl]prop-1-enyl]phenyl]allyl]tetrahydropyran-3,4,5-triol)], for which the negative logarithm of the Kd (pKd) in assay [2] (setting [4]) and in assay [2] (setting [5]) was above 8.30 throughout. Moreover, in assay [3], the pIC50 was 6.47.
Regarding `COC(=O)c1cc(/C=C/C[C@H]2O[C@H](CO)[C@@H](O)[C@H](O)[C@@H]2O)ccc1/C=C/C[C@H]1O[C@H](CO)[C@@H](O)[C@H](O)[C@@H]1O` [Compound 26, (Methyl 2,5-bis[(E)-3-[(2R,3S,4R,5S,6R)-3,4,5-trihydroxy-6-(hydroxymethyl)tetrahydropyran-2-yl]prop-1-enyl]benzoate)], the pKd in assay [2] (setting [4]) and in assay [2] (setting [5]) was above 8.30 in each case. Also, the pIC50 in assay [3] is 6.07.
`OC[C@H]1O[C@H](C/C=C/c2ccc(/C=C/C[C@H]3O[C@H](CO)[C@@H](O)[C@H](O)[C@@H]3O)cc2)[C@@H](O)[C@@H](O)[C@@H]1O` [Compound 24, ((2R,3S,4R,5S,6R)-2-(Hydroxymethyl)-6-[(E)-3-[4-[(E)-3-[(2R,3S,4R,5S,6R)-3,4,5-trihydroxy-6-(hydroxymethyl)tetrahydropyran-2-yl]prop-1-enyl]phenyl]allyl]tetrahydropyran-3,4,5-triol)]: the pKd in assay [2] (setting [4]) and in assay [2] (setting [5]) was above 8.30 throughout. Further, in assay [3], the pIC50 was 6.19.
Turning to `COc1cc(/C=C/C[C@H]2O[C@H](CO)[C@@H](O)[C@H](O)[C@@H]2O)c(OC)cc1/C=C/C[C@H]1O[C@H](CO)[C@@H](O)[C@H](O)[C@@H]1O` [Compound 30, ((2R,3S,4R,5S,6R)-2-[(E)-3-[2,5-Dimethoxy-4-[(E)-3-[(2R,3S,4R,5S,6R)-3,4,5-trihydroxy-6-(hydroxymethyl)tetrahydropyran-2-yl]prop-1-enyl]phenyl]allyl]-6-(hydroxymethyl)tetrahydropyran-3,4,5-triol)], in assay [2] (setting [4]), the pKd was 8.15 and > 8.30. Also, the pIC50 in assay [3] is 6.52.
On to `OC[C@H]1O[C@H](n2cc(-c3cccc(-c4cn([C@H]5O[C@H](CO)[C@@H](O)[C@H](O)[C@@H]5O)nn4)c3)nn2)[C@@H](O)[C@@H](O)[C@@H]1O` [Compound 19, ((2R,3S,4S,5S,6S)-2-(Hydroxymethyl)-6-[4-[3-[1-[(2S,3S,4S,5S,6R)-3,4,5-trihydroxy-6-(hydroxymethyl)tetrahydropyran-2-yl]triazol-4-yl]phenyl]triazol-1-yl]tetrahydropyran-3,4,5-triol)], for which the pKd in assay [2] (setting [4]) is 8.22 and > 8.30. Moreover, in assay [3], the pIC50 is 6.37.
For the molecule `CC(=O)N[C@@H]1[C@@H](O)[C@H](O)[C@@H](CO)O[C@H]1n1cc([C@H]2O[C@H](CO)[C@@H](O)[C@H](O)[C@@H]2O)nn1` [Compound 45, (N-[(2R,3R,4R,5S,6R)-4,5-Dihydroxy-6-(hydroxymethyl)-2-[4-[(2R,3S,4R,5S,6R)-3,4,5-trihydroxy-6-(hydroxymethyl)tetrahydropyran-2-yl]triazol-1-yl]tetrahydropyran-3-yl]acetamide)], in assay [1], the pKd is 6.15 and 6.24 and 6.25 and 6.23.
`N#Cc1cc(/C=C/C[C@H]2O[C@H](CO)[C@@H](O)[C@H](O)[C@@H]2O)ccc1/C=C/C[C@H]1O[C@H](CO)[C@@H](O)[C@H](O)[C@@H]1O` [Compound 33, (2,5-Bis[(E)-3-[(2R,3S,4R,5S,6R)-3,4,5-trihydroxy-6-(hydroxymethyl)tetrahydropyran-2-yl]prop-1-enyl]benzonitrile)]: the pKd in assay [2] (setting [4]) and in assay [2] (setting [5]) was above 8.30 in each case. Also, the pIC50 in assay [3] was 6.41.
Regarding `O=C(C[C@H]1O[C@H](CO)[C@@H](O)[C@H](O)[C@@H]1O)NCc1ccc(CNC(=O)C[C@H]2O[C@H](CO)[C@@H](O)[C@H](O)[C@@H]2O)cc1` [Compound 49, (2-[(2R,3S,4R,5S,6R)-3,4,5-Trihydroxy-6-(hydroxymethyl)tetrahydropyran-2-yl]-N-[[4-[[[2-[(2R,3S,4R,5S,6R)-3,4,5-trihydroxy-6-(hydroxymethyl)tetrahydropyran-2-yl]acetyl]amino]methyl]phenyl]methyl]acetamide)], in assay [1], the pKd is 6.83 and 7.06.
With `OC[C@H]1O[C@H](C/C=C/c2ccc(/C=C/C[C@H]3O[C@H](CO)[C@@H](O)[C@H](O)[C@@H]3O)c(Cl)c2)[C@@H](O)[C@@H](O)[C@@H]1O` [Compound 29, ((2R,3S,4R,5S,6R)-2-[(E)-3-[3-Chloro-4-[(E)-3-[(2R,3S,4R,5S,6R)-3,4,5-trihydroxy-6-(hydroxymethyl)tetrahydropyran-2-yl]prop-1-enyl]phenyl]allyl]-6-(hydroxymethyl)tetrahydropyran-3,4,5-triol)], the pKd in assay [2] (setting [4]) was 8.22 and 8.10. Also, the pIC50 in assay [3] is 5.89.
For `OC[C@H]1O[C@H](c2csc([C@H]3O[C@H](CO)[C@@H](O)[C@H](O)[C@@H]3O)c2)[C@@H](O)[C@@H](O)[C@@H]1O` [Compound 47, ((2R,3S,4R,5S,6R)-2-(Hydroxymethyl)-6-[5-[(2S,3S,4S,5S,6R)-3,4,5-trihydroxy-6-(hydroxymethyl)tetrahydropyran-2-yl]-3-thienyl]tetrahydropyran-3,4,5-triol)], the pKd in assay [1] is 7.36 and 7.43 and 7.29 and 7.44.
Consider `OC[C@H]1O[C@H](C/C=C/c2ccc(/C=C/C[C@H]3O[C@H](CO)[C@@H](O)[C@H](O)[C@@H]3O)c(F)c2)[C@@H](O)[C@@H](O)[C@@H]1O` [Compound 28], for which the pKd in assay [2] (setting [4]) and in assay [2] (setting [5]) was above 8.30 each time. The pIC50 in assay [3] was 6.11.
As to `Cc1cc(/C=C/C[C@H]2O[C@H](CO)[C@@H](O)[C@H](O)[C@@H]2O)ccc1/C=C/C[C@H]1O[C@H](CO)[C@@H](O)[C@H](O)[C@@H]1O` [Compound 27, ((2R,3S,4R,5S,6R)-2-(Hydroxymethyl)-6-[(E)-3-[3-methyl-4-[(E)-3-[(2R,3S,4R,5S,6R)-3,4,5-trihydroxy-6-(hydroxymethyl)tetrahydropyran-2-yl]prop-1-enyl]pheny]allyl]tetrahydropyran-3,4,5-triol)], the negative logarithm of the Kd (pKd) in assay [2] (setting [4]) and in assay [2] (setting [5]) was above 8.30 in each case. The pIC50 in assay [3] was 6.10.
With `O=C(C[C@H]1O[C@H](CO)[C@@H](O)[C@H](O)[C@@H]1O)Nc1cccc(NC(=O)C[C@H]2O[C@H](CO)[C@@H](O)[C@H](O)[C@@H]2O)c1` [Compound 48, (2-[(2R,3S,4R,5S,6R)-3,4,5-Trihydroxy-6-(hydroxymethyl)tetrahydropyran-2-yl]-N-[3-[[2-[(2R,3S,4R,5S,6R)-3,4,5-trihydroxy-6-(hydroxymethyl)tetrahydropyran-2-yl]acetyl]amino]phenyl]acetamide)], the pKd in assay [1] is 7.10 and 7.30 and 7.20.
For the molecule `OC[C@H]1O[C@H](c2cccc([C@H]3O[C@H](CO)[C@@H](O)[C@H](O)[C@@H]3O)c2)[C@@H](O)[C@@H](O)[C@@H]1O` [Compound 2], in assay [2] (setting [4]), the pKd is 6.90 and 7.21. The pIC50 in assay [3] was 5.31.

Broadly, the pKd is the negative decadic logarithm of the Kd, by convention in mol/L.
